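Assay format: 96-well plates, 48-hour exposure. GI50: concentration for 50% inhibition of growth.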 Calls of active or inactive are those of the source. Cut-off read from the data, not from the text of the source: active = GI50 up to about 1.1 µM and inactive = higher.
How the values were obtained:
Assay in all cases: growth of human tumour cells (NCI), 48 h
RXF 393 = system: RXF 393
A498 = system: A498
IGROV-1 = system: IGROV-1
NCI-H226 = system: NCI-H226
HT-29 = system: HT-29
UO-31 = system: UO-31
M14 = system: M14
SW-620 = system: SW-620
HOP-92 = system: HOP-92
KM12 = system: KM12
MOLT-4 = system: MOLT-4
SF-295 = system: SF-295
COLO 205 = system: COLO 205
SF-268 = system: SF-268
HCT-116 = system: HCT-116
PC-3 = system: PC-3
NCI/ADR-RES = system: NCI/ADR-RES
UACC-62 = system: UACC-62
SK-MEL-28 = system: SK-MEL-28
MCF7 = system: MCF7

Measured: GI50

CC(=O)O[C@H]1C[C@@H](OC(C)=O)[C@@](C)(O)[C@@H]2[C@@H](OC(C)=O)[C@@]3(O)[C@H](/C=C(/CCl)[C@H]4O[C@H]4[C@@H](OC(C)=O)[C@@]12C)OC(=O)[C@@H]3C
inactive: RXF 393 19.8 µM | A498 > 25 µM | IGROV-1 > 25 µM | NCI-H226 > 25 µM | HT-29 > 25 µM | UO-31 > 25 µM | M14 > 25 µM | SW-620 > 25 µM | HOP-92 > 25 µM | KM12 > 25 µM | MOLT-4 > 25 µM | SF-295 17.7 µM | COLO 205 > 25 µM | SF-268 > 25 µM | HCT-116 > 25 µM | PC-3 > 25 µM | NCI/ADR-RES > 25 µM | UACC-62 > 25 µM | SK-MEL-28 17.4 µM

O=C(c1nsc(Cl)c1Cl)N1CCCCC1
inactive: RXF 393 > 100 µM | IGROV-1 > 100 µM | NCI-H226 > 100 µM | HT-29 > 100 µM | UO-31 39.5 µM | M14 > 100 µM | SW-620 > 100 µM | KM12 > 100 µM | MOLT-4 > 100 µM | SF-295 > 100 µM | COLO 205 > 100 µM | SF-268 > 100 µM | HCT-116 > 100 µM | MCF7 > 100 µM | PC-3 > 100 µM | NCI/ADR-RES > 100 µM | UACC-62 > 100 µM | SK-MEL-28 > 100 µM

COC(=O)C1(O)C(c2ccccc2)NC2(C)CCCC21 (stereo not given)
inactive: RXF 393 > 100 µM | A498 > 100 µM | IGROV-1 > 100 µM | NCI-H226 > 100 µM | UO-31 > 100 µM | M14 > 100 µM | SW-620 > 100 µM | KM12 > 100 µM | MOLT-4 > 100 µM | SF-295 > 100 µM | COLO 205 > 100 µM | SF-268 > 100 µM | HCT-116 > 100 µM | MCF7 > 100 µM | PC-3 > 100 µM | NCI/ADR-RES > 100 µM | UACC-62 > 100 µM | SK-MEL-28 > 100 µM

CC1C[C@]2(C)C(=O)N(c3ccccc3)C(=N)[C@@H]2N(C)c2ccccc21 (stereo not given in full)
inactive: RXF 393 > 100 µM | A498 > 100 µM | IGROV-1 > 100 µM | NCI-H226 > 100 µM | HT-29 > 100 µM | UO-31 > 100 µM | M14 > 100 µM | SW-620 > 100 µM | KM12 > 100 µM | MOLT-4 > 100 µM | SF-295 > 100 µM | COLO 205 > 100 µM | SF-268 > 100 µM | HCT-116 > 100 µM | MCF7 > 100 µM | PC-3 > 100 µM | NCI/ADR-RES > 100 µM | UACC-62 > 100 µM | SK-MEL-28 > 100 µM

CCN(CC)C(=O)N[C@@H](Cc1ccccc1)C(=O)NC
inactive: RXF 393 > 100 µM | A498 > 100 µM | IGROV-1 > 100 µM | NCI-H226 > 100 µM | HT-29 > 100 µM | UO-31 > 100 µM | M14 > 100 µM | SW-620 > 100 µM | KM12 > 100 µM | MOLT-4 > 100 µM | SF-295 > 100 µM | COLO 205 > 100 µM | SF-268 > 100 µM | HCT-116 > 100 µM | MCF7 > 100 µM | PC-3 > 100 µM | NCI/ADR-RES > 100 µM | UACC-62 > 100 µM | SK-MEL-28 > 100 µM

O=C1C(C(c2ccccc2)N2CCOCC2)=C(O)C(c2ccccc2)N1c1ccccc1 (stereo not given)
inactive: RXF 393 > 10 µM | A498 > 10 µM | IGROV-1 > 10 µM | NCI-H226 > 10 µM | HT-29 > 10 µM | UO-31 > 10 µM | M14 > 10 µM | SW-620 > 10 µM | KM12 > 10 µM | MOLT-4 4.31 µM | SF-295 > 10 µM | COLO 205 > 10 µM | SF-268 > 10 µM | HCT-116 > 10 µM | MCF7 > 10 µM | PC-3 > 10 µM | NCI/ADR-RES > 10 µM | UACC-62 > 10 µM | SK-MEL-28 > 10 µM

Cc1cccc2nc3cc(O)cc(O)c3c(O)c12
inactive: RXF 393 > 10 µM | IGROV-1 > 10 µM | NCI-H226 > 10 µM | HT-29 > 10 µM | UO-31 > 10 µM | M14 > 10 µM | SW-620 > 10 µM | HOP-92 > 10 µM | KM12 > 10 µM | MOLT-4 > 10 µM | SF-295 > 10 µM | COLO 205 > 10 µM | SF-268 > 10 µM | HCT-116 > 10 µM | PC-3 > 10 µM | NCI/ADR-RES > 10 µM | UACC-62 6.49 µM | SK-MEL-28 > 10 µM

— ChEMBL document CHEMBL1201862, “PubChem BioAssay data set” (2004)
